Measurements as given in patent US10053485B2, “Cytotoxic agents that preferentially target leukemia inhibitory factor (LIF) for the treatment of malignancies and as new contraceptive agents” (Evestra, Inc., priority 2015, dated 2018).

What was measured:
[1] = test system: T47D (ER+ PR+ Breast Cancer); test: Short term (72 h) cytotoxicity assay; assay type: cell-based; conditions: Homo sapiens
[2] = test system: KM12; test: NCI-60 screen, Colon Cancer panel; assay type: cell-based; conditions: Homo sapiens, KM12, 48 h
[3] = test system: SN12C; test: NCI-60 screen, Renal Cancer panel; assay type: cell-based; conditions: Homo sapiens, 48 h
[4] = test system: MDA-MB-231 (TNBC cells); test: Short term (72 h) cytotoxicity assay; assay type: cell-based; conditions: Homo sapiens; MDA-MB-231, 72 h cytotoxicity
[5] = test system: various cancer cells lines; test: Cytotoxicity assays in various cancer cell lines; assay type: cell-based; conditions: in words
Description: Briefly, 5×10^3 cells were seeded in 96-well plates and incubated with compounds (0.0001-10 μmol/L) or dimethyl sulfoxide (DMSO; 0.02% v/v) for 24, 48, and 72 hours at 37° C. and cell viability was measured using a Fluoroscan plate reader.

[6] = test system: RPMI-8226; test: NCI-60 screen, Leukemia panel; assay type: cell-based; conditions: Homo sapiens, RPMI-8226, 48 h
[7] = test system: CCRF-CEM; test: NCI-60 screen, Leukemia panel; assay type: cell-based; conditions: Homo sapiens, 48 h
[8] = test system: A549 (Lung cancer); test: Short term (72 h) cytotoxicity assay; assay type: cell-based, human; conditions: Homo sapiens; A549, 72 h cytotoxicity
[9] = test system: HOP-62; test: NCI-60 screen, Non-Small Cell Lung Cancer panel; assay type: cell-based; conditions: Homo sapiens, HOP-62, 48 h, read-out: GI50 (log10GI50) (converted)
[10] = test system: SW-620; test: NCI-60 screen, Colon Cancer panel; assay type: cell-based; conditions: Homo sapiens, SW-620, 48 h
[11] = test system: NCI-H226; test: NCI-60 screen, Non-Small Cell Lung Cancer panel; assay type: cell-based; conditions: Homo sapiens, NCI-H226, 48 h, read-out: GI50 (log10GI50) (converted)
[12] = test system: DU-145; test: NCI-60 screen, Prostate Cancer panel; assay type: cell-based; conditions: Homo sapiens, DU-145, 48 h, read-out: GI50 (log10GI50) (converted)
[13] = test system: UO-31; test: NCI-60 screen, Renal Cancer panel; assay type: cell-based; conditions: Homo sapiens, UO-31, 48 h
[14] = test system: U251; test: NCI-60 screen, CNS Cancer panel; assay type: cell-based; conditions: Homo sapiens, U-251, 48 h
[15] = test system: HS 578T; test: NCI-60 screen, Breast Cancer panel; assay type: cell-based; conditions: Homo sapiens, 48 h
[16] = test system: SF-295; test: NCI-60 screen, CNS Cancer panel; assay type: cell-based; conditions: Homo sapiens, SF-295, 48 h
[17] = test system: CAKI-1; test: NCI-60 screen, Renal Cancer panel; assay type: cell-based; conditions: Homo sapiens, CAKI-1, 48 h
[18] = read-out: GI50 (log10GI50) (converted)
[19] = read-out: LC50 (log10LC50) (converted)

`C#CC(F)(F)[C@]1(O)CCC2C3CCC4=CC(=O)CCC4=C3C(c3ccc(C4CC4)cc3)C[C@@]21C` (stereo partly drawn) [EC330, 17α-(1,1-difluoro-2-propyn-1-yl)-17β-hydroxy-11β-[4-p-(cyclopropyl)phenyl]estra-4,9-dien-3-one] was tested, and the IC50 [1] was 80 nM, the GI50 [2, 18] was less than 10 nM and the CC50 [2, 19] was 44700 nM. For the same compound, the GI50 [3, 18] was 3800 nM, the CC50 [3, 19] was greater than 100000 nM and the IC50 [4] was 34 nM. For the same compound, the “IC50's in cytotoxicity assays” value [5] was “low nanomolar”, the GI50 [6, 18] was 112 nM and the CC50 [6, 19] was greater than 100000 nM. For the same compound, the GI50 [7, 18] was less than 10 nM, the CC50 [7, 19] was less than 10 nM and the IC50 [8] was 25 nM. The GI50 [9] was 14.1 nM, the GI50 [10, 18] was 2510 nM and the CC50 [10, 19] was greater than 100000 nM. For the same compound, the GI50 [11] was 2630 nM, the GI50 [12] was 1910 nM and the GI50 [13, 18] was less than 10 nM. It also gave a CC50 [13, 19] of less than 10 nM, a GI50 [14, 18] of 151 nM and a CC50 [14, 19] of 5370 nM. For the same compound, the GI50 [15, 18] was 2290 nM, the CC50 [15, 19] was greater than 100000 nM and the GI50 [16, 18] was less than 10 nM. The CC50 [16, 19] was less than 10 nM, the GI50 [17, 18] was 29.5 nM and the CC50 [17, 19] was greater than 100000 nM.
